Data as given in publication PMC6517818, “The yeast mitochondrial pyruvate carrier is a hetero‐dimer in its functional state” (The EMBO Journal, 2019).
Where two headings read alike, the source gives them in different places. Values belong to the molecule of their own block, whether it stands above or below them.

B3: Mpc3 after nickel-affinity purification and Factor Xa cleavage of the histidine tag (natural protein, S. cerevisiae, UniProt P53311 1-146, looked up)
chain: MSASAFNFAFRRFWNSETGPKTVHFWAPTLKWGLVFAGLNDIKRPVEKVSGAQNLSLLATALIWTRWSFVIKPKNYLLASVNFFLGCTAGYHLTRIANFRIRNGDSFKQVIHYIIKGETPAAVAAKQTASTSMNKGVIGTNPPITH
notes: Mpc3, S. cerevisiae, UniProt P53311; codon-optimised synthetic gene; theoretical mass 17.1 kDa; Same construct as m2 after tag removal; The residues IEGR of the Factor Xa site probably remain at the C-terminus after cleavage (surmised); source: S. cerevisiae mitochondria (with Mpc1: W303-1B or SHY15; alone: SHY15), purified (nickel Sepharose, on-column Factor Xa cleavage) in LMNG and tetraoleoyl …

Experiments:
[1] = molecular target: T1, Mpc1 (Mpc1/Mpc3 hetero-dimer, mitochondrial pyruvate carrier) (Saccharomyces cerevisiae, UniProt P53157+P53311); assay: […]-pyruvate homo-exchange inhibition in proteoliposomes; type: biochemical
T1 construct: Mpc1/Mpc3 hetero-complex, untagged Mpc1 co-expressed with C-terminally tagged Mpc3, reconstituted in liposomes; with Mpc3 (P53311)
T1 sequence (P53157 1-130): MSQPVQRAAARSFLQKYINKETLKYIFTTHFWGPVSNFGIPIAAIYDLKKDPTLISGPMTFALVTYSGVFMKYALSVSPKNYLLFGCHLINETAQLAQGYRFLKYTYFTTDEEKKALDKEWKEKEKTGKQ
T1 sequence (P53311 21-146): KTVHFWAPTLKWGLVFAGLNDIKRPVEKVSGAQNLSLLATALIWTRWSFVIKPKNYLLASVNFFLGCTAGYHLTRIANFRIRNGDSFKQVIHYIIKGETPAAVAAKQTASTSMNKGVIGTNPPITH

[2] = molecular target: T2, Mpc2 (Mpc1/Mpc2 hetero-complex, MPCFERM) (Saccharomyces cerevisiae, UniProt P38857+P53157); assay: time course of pyruvate homo-exchange in proteoliposomes at ΔpH […]; type: biochemical
T2 construct: Mpc1/Mpc2 hetero-complex with C-terminally tagged Mpc2, reconstituted in liposomes; with Mpc1 (P53157)
T2 sequence (P38857 1-129): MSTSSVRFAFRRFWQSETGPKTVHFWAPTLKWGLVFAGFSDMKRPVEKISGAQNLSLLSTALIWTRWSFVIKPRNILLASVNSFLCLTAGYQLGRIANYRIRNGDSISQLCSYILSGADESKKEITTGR
T2 sequence (P53157 1-130): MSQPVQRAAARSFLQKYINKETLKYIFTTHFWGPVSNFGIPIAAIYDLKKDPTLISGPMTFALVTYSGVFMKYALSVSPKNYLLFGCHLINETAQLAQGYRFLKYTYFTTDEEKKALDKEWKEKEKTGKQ

purified protein = substrate: CC(=O)C(=O)O; assay: purified protein; type: biochemical, Saccharomyces cerevisiae
[3] = molecular target: T3, Mpc3 with a C-terminal Factor Xa cleavage site and octa-histidine tag (S. cerevisiae, UniProt P53311 1-146); assay: pull-down; nickel-affinity co-purification: untagged Mpc1 co-expressed with His8-tagged partner in yeast mitochondria; solubilised in 1% LMNG, 20 mM Tris-HCl pH 7.4, 150 mM NaCl, 4 °C; bound to nickel Sepharose, washed with 40 mM imidazole, 0.1% LMNG, 0.1 mg/ml TOCL; released by on-column Factor Xa cleavage; SDS-PAGE with Coomassie stain and peptide mass fingerprinting; Mpc1/Mpc3 also purified in Triton X-100, DMNG …; conditions: partners not purified
T3 construct: Mpc3, S. cerevisiae, UniProt P53311; codon-optimised synthetic gene; This is the tagged form as captured on the nickel resin; The complex was then released by on-column Factor Xa cleavage; also called Mpc3his; histidine-tagged Mpc3; source: S. cerevisiae mitochondria (SHY15 or W303-1B), co-expressed from pBEVY-GU with untagged Mpc1; LMNG-solubilised mitochondria, captured on nickel …
T3 sequence (looked up): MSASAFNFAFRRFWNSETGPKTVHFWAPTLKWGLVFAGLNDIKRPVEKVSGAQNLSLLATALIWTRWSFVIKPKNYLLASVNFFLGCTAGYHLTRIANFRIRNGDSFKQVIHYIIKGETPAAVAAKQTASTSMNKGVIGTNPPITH

[4] = molecular target: B3; assay: SEC-MALS; SEC-MALLS, Superdex 200 10/300 GL; 20 mM Tris-HCl pH 7.4, 150 mM NaCl, 0.005% LMNG, 0.005 mg/ml TOCL; nickel-affinity-purified Mpc1/Mpc3 complex or Mpc3 alone injected; protein-conjugate method; conditions: both partners purified
[5] = molecular target: the molecule itself; assay: as above

- IC50 ([1]; read-out: IC50): 27 ± 13 µM
Molecule: CN(Cc1ccccc1)c1ccc2cc(C(=O)O)c(=O)oc2c1 [7ACC2]

- IC50 ([1]; read-out: IC50): 9 ± 7 µM
Molecule: N#C/C(=C\c1cn(-c2ccccc2)c2ccccc12)C(=O)O [UK5099]

Molecule: O=C(O)c1nn(Cc2ccc(Cl)cc2Cl)c2ccccc12 [lonidamine]
- IC50 [1]: 118 ± 24 µM

Molecule: CC(=O)C(=O)O [pyruvate]
- time course of pyruvate homo-exchange in proteoliposomes at ΔpH 1.6 [2]: the Mpc1/Mpc2 hetero‐complex was also active for ΔpH‐dependent pyruvate transport (Fig EV4D)

B1: Mpc1 (Mpc1/Mpc3 hetero-dimer, mitochondrial pyruvate carrier) (Saccharomyces cerevisiae S288C) (protein)
chain 1: MSQPVQRAAARSFLQKYINKETLKYIFTTHFWGPVSNFGIPIAAIYDLKKDPTLISGPMTFALVTYSGVFMKYALSVSPKNYLLFGCHLINETAQLAQGYRFLKYTYFTTDEEKKALDKEWKEKEKTGKQ
chain 2: KTVHFWAPTLKWGLVFAGLNDIKRPVEKVSGAQNLSLLATALIWTRWSFVIKPKNYLLASVNFFLGCTAGYHLTRIANFRIRNGDSFKQVIHYIIKGETPAAVAAKQTASTSMNKGVIGTNPPITH
notes: Mpc1/Mpc3 hetero-complex, untagged Mpc1 co-expressed with C-terminally tagged Mpc3, reconstituted in liposomes; with Mpc3 (P53311)
- Km (purified protein): 342 ± 58 µM

- stoichiometry N [3]: 1 Mpc1:Mpc3
- stoichiometry N [4]: 1 Mpc1:Mpc3
B2: Mpc1 (untagged), mitochondrial pyruvate carrier protein 1 from Saccharomyces cerevisiae (natural protein, S. cerevisiae, UniProt P53157 1-130, looked up)
chain: MSQPVQRAAARSFLQKYINKETLKYIFTTHFWGPVSNFGIPIAAIYDLKKDPTLISGPMTFALVTYSGVFMKYALSVSPKNYLLFGCHLINETAQLAQGYRFLKYTYFTTDEEKKALDKEWKEKEKTGKQ
notes: Mpc1, S. cerevisiae, UniProt P53157; codon-optimised synthetic gene; theoretical mass 15 kDa; also called unmodified Mpc1; source: S. cerevisiae mitochondria (SHY15 or W303-1B), co-expressed from pBEVY-GU with histidine-tagged Mpc3 or Mpc2; co-purified on nickel Sepharose in LMNG and tetraoleoyl cardiolipin

Molecule: B3
- stoichiometry N [5]: 2
